Laboratory results: US7544467B2, “Method for the identification of compounds capable of activating latent human immunodeficiency virus (HIV)” (The J. David Gladstone Institutes, priority 2001, dated 2009)

Columns and labels:
[1] = system: latent HIV-based retroviral vector in cell line; assay: Screen of small molecule library on cell line containing a latent HIV-based retroviral vector, GFP expression; details: different concentrations; FIG. 7
Source text: We screened a library of 6,000 small molecules (library purchased from Chembridge, San Diego) using one of the cell lines containing a latent HIV-based retroviral vector. Viral expression was monitored by GFP expression, as described above. […] The results of a typical induction experiment in which we measured CFP expression in response to different concentrations of the two small molecules (Hit 1 and Hit2) are shown in FIG. 7. The structures of three representative active agents are shown below.

[2] = system: latent HIV promoter (LTR-Tat-IRES-GFP vector) in Jurkat-derived cells; assay: Reactivation of latent LTR-Tat-IRES-GFP vector in Jurkat cells/clones, GFP by flow cytometry; type: cell-based; details: for ability to reactivate latent HIV expression (GFP-positive cells and mean fluorescence intensity): clones 82, A1, A7, A10, 10 nM TPA, 10 ng/ml TNF-α, 5 μg/ml PHA, 5 μg/ml anti-CD3, 400 nM TSA, 5 μM aza-dC 48 h
Method: To obtain a random library of clones containing the vector LTR-Tat-IRES-GFP integrated, Jurkat cells were infected at an MOI (multiplicity of infection) of 0.1 followed by serial dilution and plating in 96-well plates. Individual clones obtained after 3 weeks were analyzed by flow cytometry for GFP expression. For the purification of latently infected cells, Jurkat cells were infected with the LTR-Tat-IRES-GFP viral stock at an MOI of 0.1 and kept in culture for at least 96 h. GFP-negative (GFP^−) and GFP-positive (GFP^+) cells were separated by fluorescence activated cell sorting (FACS) and further cultured. One week later, GFP^− cells were incubated with 10 nM TPA or 10 ng/ml TNF-α for 17 h.
Jurkat cells were grown in RPMI 1640 medium (Mediatech Cellgro, Herndon, Va.) supplemented with 10% fetal bovine serum, 100 U/ml of penicillin, 100 μg/ml of streptomycin, and 2 mM L-glutamine at 37° C. under a 95% air/5% CO2 atmosphere. Peripheral blood mononuclear cells (PBMCs) were cultivated in the same medium supplemented with 100 U/ml human interleukin (hIL)-2 and were phytohemagglutinin (PHA)-stimulated (5 μg/ml) once every two weeks. 293T cells were grown under the same conditions as Jurkat cells in Dulbecco's modification of Eagle's medium (Mediatech Cellgro, Herndon, Va.). 293T cells were routinely transfected with calcium phosphate. Jurkat cells (10^7 cells/0.4 ml serum-free medium) were electroporated in 0.4-cm gap cuvettes at 250 V and […] (Gene Pulser II, Biorad, Hercules, Calif.). Plasmid DNA for transfections was purified with the Qiagen Plasmid Maxi kit, followed by phenol extraction and ethanol precipitation. To test the HIV promoter inducibility, Jurkat-derived clones were incubated for 17 h with 10 nM tetradecanoyl phorbol acetate (TPA), 10 ng/ml TNF-α, 5 μg/ml PHA, 1 μM ionomycin, 5 μg/ml anti-CD3 antibody, 400 nM Trichostatin A (TSA). Incubations with 5 μM aza-dC lasted for 48 h.
(§1) Cells were washed in PBS and resuspended in PBS containing 1% paraformaldehyde. GFP fluorescence was measured with a FACScalibur machine (Becton Dickinson, San Jose, Calif.). A two narameter analysis to distinguish GFP-derived fluorescence from background fluorescence was used: CFP was measured in FL1 and cellular autofluorescence was monitored in FL2. Electronic compensation was applied during analysis. Analysis was gated on live cells according to forward and side scatter. A gate (R2) containing GFP-positive cells was drawn compared to an uninfected control, and the data shown refer to the percentage of cells in R2 or mean fluorescence intensity (MFI) of those cells. Results shown throughout the manuscript are representative three independent experiments, except when libraries of clones were analyzed. Cell sorting was carried out with a FACSVantage (Becton Dickinson, San Jose, Calif.).

[3] = system: HIV transcription in latent cell lines; assay: HIV-specific mRNA measurement by TaqMan PCR in latent cell lines; type: cell-based; details: clone H2; +TNF-α
Method: RNA was isolated using TRIzol (Invitrogen) followed by digestion with RQ1 DNase (Promega). First strand cDNA was synthesized using Superscript II (Invitrogen). Taqman PCR was performed on an ABIprism 7700 detector using the following primer/probe set: primer 1: 5′-[…]-3′ (SEQ ID NO:21); primer 2: 5′-[…]-3′ (SEQ ID NO:22); probe 5′-CTGGTAACTAGAGATCCC-3′ (SEQ LD NO:23). The GAPDH primer/probe set was purchased from Applied Biosystems.
FIG. 1A-C. Enrichment and purification of HIV-latently infected cells by FACS. (A) A schematic representation of our enrichment protocol is shown. See text for details. The percentage of GFP-positive cells obtained after infection (4%) or after TNF-α treatment of GFP-cells (0.06%) is shown. Similar data were obtained with TPA. (B) Clonal cell lines isolated using the procedure described above were analyzed for CFP expression under basal and stimulated conditions (24 hr treatment with TNF-α). (C) mRNA levels were measured for HIV and for GAPDH using TaqMan PCR in untreated and TNF-α-treated cell lines. Results are expressed as a percentage of mRNA levels measured in Jurkat cells acutely infected with HIVNL4-3 (day 6 post-infection). Clone A72 is infected with an LTR-CFP construct (Jordan et al. (2001, supra), clone H2 is infected with the LTR-Tat-IRS-GFP vector while clones F11 and G10 are infected with HIV-R7/E^−/GFP.

[4] = system: latent full-length HIV provirus (HIV-R7/E-/GFP) in Jurkat clones; assay: HIV-specific p24 in culture supernatants of latent HIV-R7/E-/GFP clones; type: cell-based; details: culture supernatant; for p24 (pg/ml): + TNF-α
Source text: When the culture supernatants of the same clones were examined for HIV-specific p24 expression, no or low picogram amounts could be detected under basal conditions (Table I).

[5] = system: latent full-length HIV provirus (HIV-R7/E-/GFP) in Jurkat cells; assay: GFP expression in Jurkat cells/clones latently infected with full-length HIV-R7/E-/GFP, flow cytometry; type: cell-based; details: for GFP Signal (MFI) / GFP-Positive (%): + TNF-α
Method: as §1
The HIV molecular clone (HIV-R7/E^−1/GFP) was constructed by introducing a frameshift mutation in the env gene (by filling-in NdeI site with T4 polymerase) in the backbone of HIV-R7/3/GCF. Bieniasz and Cullen (2000) J. Virol. 74:9868-9877.
To confirm that HIV Latency can be established in the context of a full length provirus, we used a recombinant HIV molecular clone containing the GFP open reading frame in place of the Nef gene (Bieniasz and Cullen (2000) J. Virol. 74:9868-9877) (HIV-R7/E^−/GFP) (FIG. 5A). To restrict our analysis to a single infection cycle, the env gene was suppressed by introduction of a frameshift mutation. […]. We infected a culture of the lymphocytic cell line Jurkat with viral particles containing this HIV genome and used differential fluorescence-activated cell sorting based on GFP expression to isolate GFP-negative cells by FACS 4 days after infection (FIG. 5B). Based on our previous experiments, we predicted that this population harbored both uninfected cells and cells with transcriptionally silenced proviruses. To activate HIV expression, we treated this population with TNF-α and observed that a small fraction of the cell population (1.9%) became positive. These activated cells were purified by FACS based on GFP expression levels (FIG. 5B). These cells were both grown as a group and individually sorted for further characterization.
FIG. 5. Establishment of latently infected cell lines with a full-length HIV provirus. (A) genome organization of a molecular clone of HIV encoding GFP and containing a frameshift mutation in env. (B) Schematic representation of protocol for enrichment of latently-infected cells after infection of Jurkat cells with HIV-R7/E^−/GFP) (see text for detail). (C) Clonal cell lines isolated using the procedure described above were analyzed for GFP expression under basal and stimulated conditions (24 hr treatment with TNF-α).

[6] = system: latent full-length HIV provirus (HIV-R7/E-/GFP) in Jurkat clones; assay: Western blotting of HIV-specific proteins in latent HIV-R7/E-/GFP clones; type: cell-based; details: several clones; particularly gag p55 precursor
Source text: Levels of viral mRNA after activation were similar to those measured after a productive HIV infection (compare clones F11 and G10 with NL4-3, FIG. 1C).

Molecule: CC1(C)Cc2ccccc2C(NNC(=O)c2ccccn2)=N1 [Hit2]
- induction of HIV expression as measured by increased GFP expression [1]: reproducibly lead to an induction of HIV expression

Molecule: COc1cc(/C=N/NC(=O)c2cc(-c3ccccc3)n[nH]2)cc(OC)c1O [Hit 1]
- induction of HIV expression as measured by increased GFP expression [1]: reproducibly lead to an induction of HIV expression

Molecule: CC(/C=C/C(=O)NO)=C\[C@@H](C)C(=O)c1ccc(N(C)C)cc1 [Trichostatin A]
- ability to reactivate latent HIV expression (GFP-positive cells and mean fluorescence intensity) [2]: activated expression but to a lesser extent than NT-κB activators and in only some cell lines

Molecule: Nc1ncn([C@H]2C[C@H](O)[C@@H](CO)O2)c(=O)n1 [aza-dC, 5-axa-2-deoxycytidine]
- ability to reactivate latent HIV expression (GFP-positive cells and mean fluorescence intensity) [2]: little effect

Molecule: phytohemagglutinin [PHA]
- ability to reactivate latent HIV expression (GFP-positive cells and mean fluorescence intensity) [2]: induced HIV expression

Molecule: tetradecanoyl phorbol acetate [TPA]
- GFP expression of individual latent clones after treatment ([2]; clonal cell lines 4 weeks after isolation): all clones were activated
- ability to reactivate latent HIV expression (GFP-positive cells and mean fluorescence intensity) [2]: strongest inducer tested

Molecule: tumor necrosis factor alpha [TNF-α]
- HIV mRNA levels, activated versus basal conditions [3]: activation of HIV transcription
- ability to reactivate latent HIV expression (GFP-positive cells and mean fluorescence intensity) [2]: induced HIV expression
- p24 (pg/ml) ([4]; Clone 6.3): 10,100 ± 4,573 pg/ml
- p24 (pg/ml) ([4]; Clone 8.4): 32,967 ± 10,537 pg/ml
- p24 (pg/ml) ([4]; Clone 9.2): 41,067 ± 9,100 pg/ml
- p24 (pg/ml) ([4]; Clone 10.6): 85,500 ± 5,981 pg/ml
- p24 (pg/ml) ([4]; Clone 15.4): 6,066 ± 1,960 pg/ml
- increase in p24 measurement versus basal conditions ([4]; several representative clones): greater than a thousand-fold increase
- GFP Signal (MFI) ([5]; Clone 6.3): 135 ± 43 MFI
- GFP-Positive (%) ([5]; Clone 6.3): 27 ± 9%
- GFP Signal (MFI) ([5]; Clone 8.4): 488 ± 74 MFI
- GFP-Positive (%) ([5]; Clone 8.4): 77 ± 6%
- GFP Signal (MFI) ([5]; Clone 9.2): 522 ± 61 MFI
- GFP-Positive (%) ([5]; Clone 9.2): 75 ± 7%
- GFP Signal (MFI) ([5]; Clone 10.6): 645 ± 45 MFI
- GFP-Positive (%) ([5]; Clone 10.6): 96 ± 1%
- GFP Signal (MFI) ([5]; Clone 15.4): 188 ± 34 MFI
- GFP-Positive (%) ([5]; Clone 15.4): 46 ± 6%
- fraction of the cell population that became GFP positive ([5]; Jurkat infected with HIV-R7/E-/GFP, sorted GFP-negative population): 1.9%
- HIV expression (fraction of GFP positive cells and mean fluorescence intensity) in individual clones ([5]; individual HIV-R7/E-/GFP clones): HIV expression was increased in all clones
- HIV protein expression by western blotting [6]: dramatic increase in HIV protein expression
